Assay results reported in US20080069899A1, “Pharmaceutical Compositions Comprising Beta-Carboline Derivatives and Use Thereof for the Treatment of Cancer” (priority 2004, published 2008).
“And” between values parts separate entries of the source, which are not always exact repeats. Equal entries are not always repeated. Where two headings read alike, the source gives them in different places.

Legend:
[1] = tested on: HBMEC (immortalized human bone marrow endothelial cell lines); test: in vitro cytotoxicity test (neutral red, 96-well microplate); format: cell-based; conditions: 96 h, incubation 4 days
Procedure: (§1) The cytotoxic effects of the different alkaloid extracts of P. harmala were studied on several cell lines: • human leukemia cell lines: K562 and Jurkat (leukemia), U937 (myeloma), • human solid tumor cell lines: KB (epithelioma of the nasopharynx) and HT29 (colon), • immortalized human bone marrow endothelial cell lines: HBMEC.
(§2) The cells are cultured in an oven under a 5% CO2 atmosphere and at 37° C., in RPMI 1640 medium for K562, Jurkat, U937 and HT29 and DMEM for KB, supplemented with 10% foetal calf serum, 0.01% penicillin-streptomycin and L-glutamine 2 mM and in EGM2 medium for the HBMEC cells.
(§3) The cytotoxicity test is carried out in a 96-well microplate in the presence of the extract to be tested at varying concentrations of 40, 20, 10, 5, 1, 0.5 μg/ml and in the absence of product, after incubation for 4 days at 37° C. On the 3rd day, a solution of neutral red is added which is absorbed by living cells. The optical density (OD) of dye released by lyzed cells is measured at 540 nm by an Elisa plate reader. The toxicity (% inhibition of growth) is inversely proportional to the optical density.
(§4) The percentage of inhibition is defined as being the difference between the OD without product and the OD in the presence of product compared to the OD without product.
(§5) The concentration inhibiting 50% of cell growth is obtained from the curve representing the percentage of inhibition as a function of the logarithm of the concentration.

HT29 (colon) = test: as above; format: cell-based; conditions: Homo sapiens, HT-29, 96 h, incubation 4 days
Procedure: as §1, §2, §3, §4, §5

Jurkat (leukemia) = test: as above; format: cell-based; conditions: Homo sapiens, 96 h, incubation 4 days
Procedure: as §1, §2, §3, §4, §5

K562 (leukemia) = test: as above; format: cell-based; conditions: Homo sapiens, 96 h, incubation 4 days
Procedure: as §1, §2, §3, §4, §5

[2] = tested on: KB (epithelioma of the nasopharynx); test: as above; format: cell-based; conditions: Homo sapiens, 96 h, incubation 4 days
Procedure: as §1, §2, §3, §4, §5

U937 (myeloma) = test: as above; format: cell-based; conditions: Homo sapiens, U-937, 96 h, incubation 4 days
Procedure: as §1, §2, §3, §4, §5

[3] = tested on: HT29 human colon tumor cells; test: in vivo antineoplastic activity, NOD-SCID mice xenografted with HT29 human tumour cells
Procedure: (§6) The animal model chosen is that of severe combined immunodeficient (NOD-SCID) mice having received a xenograft of human tumor cells.
(§7) Male and female NOD-SCID mice, more than 3 months old, were raised in an environment of strict sterility, in an insulator ventilated with filtered air and sterilized, at 22° C. and 40% humidity, with a day-12 h/night-12 h cycle. The cages, feeding bottles and the water were sterilized in an autoclave at 120° C. for 30 minutes and the food as well as the bedding were treated with γ-irradiation. All handling took place in aseptic conditions under a laminar flow hood.
The mice were subjected to general anaesthesia by i.p. injection of 0.3 to 0.4 ml of hypnomidate at 2 mg/ml. 1×10^7 HT29 human colon tumor cells in suspension in 200 μl of PBS were then injected sub-cutaneously, into the backs of the mice. […]
50 mg of 5-fluorouracil (Sigma) were dissolved in 8 ml of water and the solution obtained was sterilized by filtration on a membrane with 0.22 μm porosity. […]

[4] = Procedure: as §6, §7
150 mg of cyclophosphamide (Sigma) were dissolved in 8 ml of water and the solution obtained was sterilized by filtration on a membrane with 0.22 μm porosity.
50 mg of 5-fluorouracil (Sigma) were dissolved in 8 ml of water and the solution obtained was sterilized by filtration on a membrane with 0.22 μm porosity.
100 mg of dihydrated harmalacidine hydrochloride were dissolved in 8 ml of water and the solution obtained was sterilized by filtration on a membrane with 0.22 μm porosity. The mice received either 25, 50, or 100 mg/kg/day of harmalacidine alone, or a mixture of 25 or 50 mg/kg/day of harmalacidine+50 mg/kg/day of cyclophosphamide.

[5] = tested on: malignant and endothelial cells tested; test: summary of in vitro cytotoxicity over all lines tested; format: cell-based, human; conditions: Homo sapiens, Endothelial cell, range over the cell lines; read-out: IC50 vis-à-vis malignant and endothelial cells tested
Procedure: as §1, §2, §3, §4, §5
To summarize, the IC50 vis-à-vis malignant and endothelial cells tested is the following: […]

[6] = tested on: HT29 human colon tumor cells; test: in vivo antineoplastic activity, NOD-SCID mice xenografted with HT29 human tumour cells; remark: listed apart in the source
murine tumorous cells = conditions: cited from earlier work

COc1ccc2c3c([nH]c2c1)C(=O)NCC3 [Harmalacidine (C), harmalacidine]
IC50 [1]: 28 µg/mL and 130 µM
IC50 (HT29 (colon)): 10.5 µg/mL and 34.4 µM
IC50 (Jurkat (leukemia)): 15.5 µg/mL and 71.7 µM
IC50 (K562 (leukemia)): 12.5 µg/mL and 57.8 µM
IC50 [2]: 12 µg/mL and 55.5 µM
IC50 (U937 (myeloma)): 29 µg/mL and 134 µM
Average volume of the tumours of the treated mice compared to the average volume of the tumours of the non-treated mice (T/C) (%) ([3]; harmalacidine 25 mg/kg/day alone per os, Day 15): 81%
Average volume of the tumours of the treated mice compared to the average volume of the tumours of the non-treated mice (T/C) (%) ([3]; harmalacidine 25 mg/kg/day alone per os, Day 30): 72%
Average volume of the tumours of the treated mice compared to the average volume of the tumours of the non-treated mice (T/C) (%) ([3]; harmalacidine 25 mg/kg/day alone per os, Day 40): 70%
Average volume of the tumours of the treated mice compared to the average volume of the tumours of the non-treated mice (T/C) (%) ([3]; harmalacidine 25 mg/kg/day alone per os, Day 50): 65%
Average volume of the tumours of the treated mice compared to the average volume of the tumours of the non-treated mice (T/C) (%) ([3]; harmalacidine 25 mg/kg/day alone per os, Day 60): 77%
Average volume of the tumours of the treated mice compared to the average volume of the tumours of the non-treated mice (T/C) (%) ([3]; harmalacidine 50 mg/kg/day alone per os, Day 15): 42%
Average volume of the tumours of the treated mice compared to the average volume of the tumours of the non-treated mice (T/C) (%) ([3]; harmalacidine 50 mg/kg/day alone per os, Day 30): 56%
Average volume of the tumours of the treated mice compared to the average volume of the tumours of the non-treated mice (T/C) (%) ([3]; harmalacidine 50 mg/kg/day alone per os, Day 40): 48%
Average volume of the tumours of the treated mice compared to the average volume of the tumours of the non-treated mice (T/C) (%) ([3]; harmalacidine 50 mg/kg/day alone per os, Day 50): 45%
Average volume of the tumours of the treated mice compared to the average volume of the tumours of the non-treated mice (T/C) (%) ([3]; harmalacidine 50 mg/kg/day alone per os, Day 60): 57%
state of the mice (printed in the T/C column) ([4]; harmalacidine 100 mg/kg/day alone, Day 15): dead
tolerance of the dose ([4]; harmalacidine 100 mg/kg/day, for more than 10 days): not tolerated

COc1ccc2c(c1)[nH]c1c(C)nccc12 [Harmine (A), harmine]
IC50 [1]: 3.5 µg/mL and 16.5 µM
IC50 (HT29 (colon)): 2.9 µg/mL and 13.7 µM
IC50 (Jurkat (leukemia)): 3.2 µg/mL and 15.1 µM
IC50 [2]: 4.6 µg/mL and 21.7 µM
IC50 (U937 (myeloma)): 16.5 µM
IC50 [5]: 2.9 µg/mL to 4.6 µg/mL and 14 µM to 22 µM
inhibitory action on the growth of the tumors ([3]; harmine 100 mg/kg/day per os): very weak effect
Average volume of the tumours of the treated mice compared to the average volume of the tumours of the non-treated mice (T/C) (%) ([3]; harmine 100 mg/kg/day per os, Day 30): 74%
Average volume of the tumours of the treated mice compared to the average volume of the tumours of the non-treated mice (T/C) (%) ([3]; harmine 100 mg/kg/day per os, Day 50): 84%
Average volume of the tumours of the treated mice compared to the average volume of the tumours of the non-treated mice (T/C) (%) ([3]; harmine 100 mg/kg/day per os, Day 60): 105%
Average volume of the tumours of the treated mice compared to the average volume of the tumours of the non-treated mice (T/C) (%) ([3]; harmine 125 mg/kg/day per os, Day 40): 58%
Average volume of the tumours of the treated mice compared to the average volume of the tumours of the non-treated mice (T/C) (%) ([3]; harmine 125 mg/kg/day per os, Day 50): 54%
Average volume of the tumours of the treated mice compared to the average volume of the tumours of the non-treated mice (T/C) (%) ([3]; harmine 125 mg/kg/day per os, Day 60): 67%
Average volume of the tumours of the treated mice compared to the average volume of the tumours of the non-treated mice (T/C) (%) ([3]; harmine 150 mg/kg/day per os, Day 30): 41%
Average volume of the tumours of the treated mice compared to the average volume of the tumours of the non-treated mice (T/C) (%) ([3]; harmine 150 mg/kg/day per os, Day 40): 46%
Average volume of the tumours of the treated mice compared to the average volume of the tumours of the non-treated mice (T/C) (%) ([3]; harmine 150 mg/kg/day per os, Day 50): 42%
Average volume of the tumours of the treated mice compared to the average volume of the tumours of the non-treated mice (T/C) (%) ([3]; harmine 150 mg/kg/day per os, Day 60): 51%
Average volume of the tumours of the treated mice compared to the average volume of the tumours of the non-treated mice (T/C) (%) ([3]; harmine 175 mg/kg/day per os, Day 30): 40%
Average volume of the tumours of the treated mice compared to the average volume of the tumours of the non-treated mice (T/C) (%) ([3]; harmine 175 mg/kg/day per os, Day 60): 40%
T/C ([3]; harmine 175 mg/kg/day per os, for the entire duration of treatment): 40%
tolerance of the dose ([4]; harmine 200 mg/kg/day per os, the mice died after a few days of treatment): not tolerated
Average volume of the tumours of the treated mice compared to the average volume of the tumours of the non-treated mice (T/C) (%) ([6]; harmine 100 mg/kg/day per os, Day 40): 77%
Average volume of the tumours of the treated mice compared to the average volume of the tumours of the non-treated mice (T/C) (%) ([6]; harmine 125 mg/kg/day per os, Day 30): 55%
Average volume of the tumours of the treated mice compared to the average volume of the tumours of the non-treated mice (T/C) (%) ([6]; harmine 175 mg/kg/day per os, Day 40): 10%
Average volume of the tumours of the treated mice compared to the average volume of the tumours of the non-treated mice (T/C) (%) ([6]; harmine 175 mg/kg/day per os, Day 50): 30%

Peganine [Peganine (B)]
concentration inhibiting 50% of cell growth (IC50) (murine tumorous cells): inactive
